These results are taken from patent US8901087B2, “Selective glycosidase inhibitors and uses thereof” (priority 2010, dated 2014).

One assay addresses human O-GlcNAcase (Homo sapiens (Human), UniProt O60502). Kind of assay: Fluorescence-based assay for determination of KI values for inhibition of O-GlcNAcase activity. In kind it is biochemical. Particulars: purified human O-GlcNAcase, 4-Methylumbelliferyl N-acetyl-β-D-glucosaminide substrate, pH 7.0, Cheng-Prusoff; read-out: Fluorescence-based hOGA Ki. The method, then: Assay for Determination of KI Values for Inhibition of O-GlcNAcase Activity
Experimental Procedure for Kinetic Analyses
Enzymatic reactions are carried out in a reaction containing 50 mM NaH2PO4, 100 mM NaCl and 0.1% BSA (pH 7.0) using 2 mM 4-Methylumbelliferyl N-acetyl-β-D-glucosaminide dihydrate (Sigma M2133) dissolved in ddH2O, as a substrate. The amount of purified human O-GlcNAcase enzyme used in the reaction is 0.7 nM. Test compound of varying concentrations is added to the enzyme prior to initiation of the reaction. The reaction is performed at room temperature in a 96-well plate and is initiated with the addition of substrate. […] The slope of product production is determined for each concentration of compound tested and plotted, using standard curve fitting algorithms for sigmoidal dose response curves. The values for a four parameter logistic curve fit of the data are determined.

For another assay, the target named is O-GlcNAcase (Rattus norvegicus, UniProt Q8VIJ5). Nature of the assay: Cell-based ELISA for cellular activity of O-GlcNAcase inhibitors (O-GlcNAcylated protein level, RL-2 antibody). Particulars: increase in O-GlcNAcylated protein, cells treated 24 hours, RL-2 antibody ELISA. The text has this: Assay for Determination of Cellular Activity for Compounds that Inhibit O-GlcNAcase Activity
O-GlcNAcase, sequence (Q8VIJ5 whole entry, looked up): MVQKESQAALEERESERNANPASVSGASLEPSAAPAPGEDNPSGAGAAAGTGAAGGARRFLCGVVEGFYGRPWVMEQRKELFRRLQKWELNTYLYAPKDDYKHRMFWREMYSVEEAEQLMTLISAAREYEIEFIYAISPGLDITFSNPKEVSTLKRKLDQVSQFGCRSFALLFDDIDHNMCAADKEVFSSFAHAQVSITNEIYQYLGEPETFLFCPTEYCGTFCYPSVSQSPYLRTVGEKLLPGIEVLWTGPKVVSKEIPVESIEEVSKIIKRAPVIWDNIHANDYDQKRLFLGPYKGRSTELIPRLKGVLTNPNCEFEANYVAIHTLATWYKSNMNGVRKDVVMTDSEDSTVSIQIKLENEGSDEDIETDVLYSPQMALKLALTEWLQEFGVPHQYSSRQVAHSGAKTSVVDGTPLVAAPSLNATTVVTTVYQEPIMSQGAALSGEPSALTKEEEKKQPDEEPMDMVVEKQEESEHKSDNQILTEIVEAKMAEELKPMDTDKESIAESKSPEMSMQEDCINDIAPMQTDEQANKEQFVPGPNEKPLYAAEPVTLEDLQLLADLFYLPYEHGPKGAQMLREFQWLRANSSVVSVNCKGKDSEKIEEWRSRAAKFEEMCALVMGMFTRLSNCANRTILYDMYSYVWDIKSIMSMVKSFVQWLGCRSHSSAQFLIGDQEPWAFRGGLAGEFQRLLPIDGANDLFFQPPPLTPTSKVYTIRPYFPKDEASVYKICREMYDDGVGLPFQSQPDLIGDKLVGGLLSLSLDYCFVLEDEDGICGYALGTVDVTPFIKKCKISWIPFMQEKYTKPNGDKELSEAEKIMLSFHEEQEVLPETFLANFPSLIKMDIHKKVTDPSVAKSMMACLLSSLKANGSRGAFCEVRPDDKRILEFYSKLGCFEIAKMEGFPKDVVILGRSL
Inhibition of O-GlcNAcase, which removes O-GlcNAc from cellular proteins, results in an increase in the level of O-GlcNAcylated protein in cells. An increase in O-GlcNAcylated protein can be measured by an antibody, such as RL-2, that binds to O-GlcNAcylated protein. The amount of O-GlcNAcylated protein:RL2 antibody interaction can be measured by enzyme linked immunosorbant assay (ELISA) procedures.
A general note: In an ELISA, binding on a coated surface is turned into a signal by an enzyme label.

human O-GlcNAcase, sequence (O60502 whole entry): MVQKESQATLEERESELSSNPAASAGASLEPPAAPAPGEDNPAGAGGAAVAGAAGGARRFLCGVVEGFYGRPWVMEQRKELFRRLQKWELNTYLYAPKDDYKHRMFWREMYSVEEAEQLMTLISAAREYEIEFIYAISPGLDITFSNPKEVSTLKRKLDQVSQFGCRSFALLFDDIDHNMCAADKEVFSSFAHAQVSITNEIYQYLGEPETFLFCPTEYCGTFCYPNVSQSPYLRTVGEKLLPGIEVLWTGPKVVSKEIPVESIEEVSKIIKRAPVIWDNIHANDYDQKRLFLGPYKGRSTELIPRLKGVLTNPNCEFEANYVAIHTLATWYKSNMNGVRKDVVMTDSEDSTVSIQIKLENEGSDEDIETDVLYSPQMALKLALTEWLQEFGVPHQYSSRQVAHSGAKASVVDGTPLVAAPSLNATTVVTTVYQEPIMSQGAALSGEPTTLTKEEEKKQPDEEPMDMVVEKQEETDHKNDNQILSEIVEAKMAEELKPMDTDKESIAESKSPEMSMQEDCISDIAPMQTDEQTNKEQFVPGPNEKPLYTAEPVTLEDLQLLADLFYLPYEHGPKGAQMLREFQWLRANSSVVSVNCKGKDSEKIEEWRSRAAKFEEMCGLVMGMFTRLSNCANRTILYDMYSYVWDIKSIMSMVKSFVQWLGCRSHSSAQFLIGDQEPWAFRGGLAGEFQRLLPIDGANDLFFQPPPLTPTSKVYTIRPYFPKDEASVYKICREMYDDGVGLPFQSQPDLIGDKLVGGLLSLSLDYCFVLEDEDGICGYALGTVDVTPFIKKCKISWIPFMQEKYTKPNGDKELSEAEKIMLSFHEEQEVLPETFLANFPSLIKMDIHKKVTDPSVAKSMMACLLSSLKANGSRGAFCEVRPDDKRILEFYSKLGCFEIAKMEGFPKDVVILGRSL

Take `CN(C)C1=N[C@@H]2[C@@H](OCc3ccccc3)[C@H](COCc3ccccc3)[C@@H](C(O)C3SCCCS3)O[C@@H]2S1` (some centres unmarked) [Example 96]: the Ki (as a rule, a dissociation constant, usually derived from enzyme kinetics or from competition with a known ligand) on human O-GlcNAcase was 0.19 nM. Besides, at O-GlcNAcase, the EC50 – broadly, the concentration that produces a half-maximal response – worked out at 4.55 nM.
